Assay results from US20100248390A1, “COMPOSITIONS AND METHODS FOR IDENTIFYING LIGANDS OF ODORANT RECEPTORS” (DUKE UNIVERSITY, priority 2009, published 2010).
“And” between values parts separate entries of the source, which are not always exact repeats. Equal entries are not always repeated.

Tested on: mouse odorant receptors (ORs)
Assay: CRE-luciferase assay of odorant receptor activation (Dual-Glo, Hana3A cells, RTP1S), dose-response EC50
Assay type: cell-based
Conditions: for log EC50 (Table 4 value), MOR162-1: receptor MOR162-1; for log EC50 (Table 4 value), MOR170-1: receptor MOR170-1; for log EC50 (Table 4 value), MOR185-1: receptor MOR185-1; for log EC50 (Table 4 value), MOR189-1 / log EC50, MOR189-1: receptor MOR189-1; for log EC50 (Table 4 value), MOR207-1: receptor MOR207-1; for log EC50 (Table 4 value), MOR222-1: receptor MOR222-1; for log EC50 (Table 4 value), MOR273-1: receptor MOR273-1; for log EC50 of odorant at MOR5-1 (0 = no response): receptor MOR5-1; for log EC50 of odorant at MOR30-1 (0 = no response): receptor MOR30-1; for log EC50 of odorant at MOR33-1 (0 = no response): receptor MOR33-1; for log EC50 of odorant at MOR40-1 (0 = no response): receptor MOR40-1; for log EC50 of odorant at MOR203-1 (0 = no response) / log EC50, MOR203-1 / log EC50 (Table 4 value), MOR203-1: receptor MOR203-1; for log EC50 of odorant at MOR260-1 (0 = no response): receptor MOR260-1; for log EC50, MOR184-1: receptor MOR184-1; for log EC50 (Table 4 value), MOR161-1: receptor MOR161-1; for log EC50, MOR138-1: receptor MOR138-1
[1] = receptor MOR41-1, 0 = no response
[2] = receptor MOR139-1, 0 = no response
[3] = receptor MOR271-1, 0 = no response
[4] = receptor MOR261-1, 0 = no response
[5] = receptor MOR272-1, 0 = no response

Structure (SMILES): O=C1CCOc2ccccc21 [4-Chromanone]
- log EC50 (Table 4 value), MOR41-1 (receptor MOR41-1): −4.747
- log EC50 (Table 4 value), MOR129-1 (receptor MOR129-1): −3.785
- log EC50 (Table 4 value), MOR139-1 (receptor MOR139-1): −4.028
- log EC50 (Table 4 value), MOR162-1: −4.225
- log EC50 (Table 4 value), MOR170-1: −4.209
- log EC50 (Table 4 value), MOR185-1: −3.833
- log EC50 (Table 4 value), MOR189-1: −3.684
- log EC50 (Table 4 value), MOR207-1: −3.724
- log EC50 (Table 4 value), MOR222-1: −3.618
- log EC50 (Table 4 value), MOR271-1 (receptor MOR271-1): −4.047
- log EC50 (Table 4 value), MOR272-1 (receptor MOR272-1): −4.043
- log EC50 (Table 4 value), MOR273-1: −4.201
- log EC50 (Table 4 value), MOR277-1 (receptor MOR277-1): −3.415

Structure (SMILES): CCCCCCCCC(=O)O [Nonanoic acid]
- log EC50 of odorant at MOR5-1 (0 = no response): −4.029
- log EC50 of odorant at MOR18-1 (0 = no response) (receptor MOR18-1): −4.077
- log EC50 of odorant at MOR30-1 (0 = no response): −4.396
- log EC50 of odorant at MOR33-1 (0 = no response): −4.606
- log EC50 of odorant at MOR37-1 (0 = no response) (receptor MOR37-1): −3.9
- log EC50 of odorant at MOR40-1 (0 = no response): −4.128
- log EC50 of odorant at MOR203-1 (0 = no response): −3.478
- log EC50 of odorant at MOR260-1 (0 = no response): −4.108

Structure (SMILES): C=C(C)C1CC=C(C)C(=O)C1 (single isomer, unassigned; (-)) [(−)-Carvone]
- log EC50, MOR41-1 [1]: −4.257
- log EC50, MOR139-1 [2]: −3.861
- log EC50, MOR184-1 (0 = no response): −3.92
- log EC50, MOR189-1 (0 = no response): −4.147
- log EC50, MOR203-1 (0 = no response): −3.938
- log EC50, MOR271-1 [3]: −4.14

Structure (SMILES): CCCCCCCO [1-Heptanol]
- log EC50, MOR41-1 [1]: −3.68
- log EC50, MOR203-1 (0 = no response): −3.387
- log EC50, MOR261-1 [4]: −3.382
- log EC50, MOR271-1 [3]: −3.47
- log EC50, MOR272-1 [5]: −4.181

Structure (SMILES): CCCCCCCCCS [Nonanethiol]
- log EC50 of odorant at MOR203-1 (0 = no response): −3.528
- log EC50 of odorant at MOR260-1 (0 = no response): −4.488
- log EC50 of odorant at MOR261-1 (0 = no response) (receptor MOR261-1): −3.376
- log EC50 of odorant at MOR268-1 (0 = no response) (receptor MOR268-1): −3.589

Structure (SMILES): CC(C)=CCC/C(C)=C/CO [Getaniol]
- log EC50 (Table 4 value), MOR139-1 (receptor MOR139-1): −3.939
- log EC50 (Table 4 value), MOR203-1: −3.622
- log EC50 (Table 4 value), MOR238-1 (receptor MOR238-1): −3.843
- log EC50 (Table 4 value), MOR268-1 (receptor MOR268-1): −3.897

Structure (SMILES): CCCCCCCCCCO [1-Decanol]
- log EC50, MOR203-1 (0 = no response): −3.299
- log EC50, MOR261-1 [4]: −3.273

Structure (SMILES): CCCCCCCCS [Octanethiol]
- log EC50 of odorant at MOR203-1 (0 = no response): −3.356

Structure (SMILES): CCCCCCCC(=O)O [Octanoic Acid]
- log EC50 of odorant at MOR5-1 (0 = no response): −3.711
- log EC50 of odorant at MOR23-1 (0 = no response) (receptor MOR23-1): −5.053
- log EC50 of odorant at MOR25-1 (0 = no response) (receptor MOR25-1): −3.689
- log EC50 of odorant at MOR30-1 (0 = no response): −3.68
- log EC50 of odorant at MOR33-1 (0 = no response): −4.212
- log EC50 of odorant at MOR40-1 (0 = no response): −3.617

Structure (SMILES): CCCCCC1=C(C)CCC1=O [Dihydroiasmone]
- log EC50 (Table 4 value), MOR41-1 (receptor MOR41-1): −3.766
- log EC50 (Table 4 value), MOR139-1 (receptor MOR139-1): −4.308
- log EC50 (Table 4 value), MOR189-1: −3.945
- log EC50 (Table 4 value), MOR205-1 (receptor MOR205-1): −4.699
- log EC50 (Table 4 value), MOR271-1 (receptor MOR271-1): −4.126
- log EC50 (Table 4 value), MOR272-1 (receptor MOR272-1): −4.447
- log EC50 (Table 4 value), MOR273-1: −4.441

Structure (SMILES): CC(=O)Oc1ccccc1 [Phenyl acetate]
- log EC50 of odorant at MOR41-1 (0 = no response) (receptor MOR41-1): −4.143
- log EC50 of odorant at MOR106-1 (0 = no response) (receptor MOR106-1): −3.874
- log EC50 of odorant at MOR139-1 (0 = no response) (receptor MOR139-1): −3.421 and −3.385
- log EC50 of odorant at MOR223-1 (0 = no response) (receptor MOR223-1): −3.487
- log EC50 of odorant at MOR250-1 (0 = no response) (receptor MOR250-1): −3.545
- log EC50 of odorant at MOR258-1 (0 = no response) (receptor MOR258-1): −3.099
- log EC50 of odorant at MOR271-1 (0 = no response) (receptor MOR271-1): −5.033
- log EC50 of odorant at MOR272-1 (0 = no response) (receptor MOR272-1): −5.098

Structure (SMILES): CC(=O)OCc1ccccc1 [Benzyl acetate]
- log EC50 (Table 4 value), MOR41-1 (receptor MOR41-1): −3.972
- log EC50 (Table 4 value), MOR139-1 (receptor MOR139-1): −3.729
- log EC50 (Table 4 value), MOR203-1: −3.531
- log EC50 (Table 4 value), MOR223-1 (receptor MOR223-1): −3.841
- log EC50 (Table 4 value), MOR261-1 (receptor MOR261-1): −3.352
- log EC50 (Table 4 value), MOR271-1 (receptor MOR271-1): −5.379
- log EC50 (Table 4 value), MOR272-1 (receptor MOR272-1): −4.948

Structure (SMILES): O=c1ccc2ccccc2o1 [Coumarin]
- log EC50 (Table 4 value), MOR41-1 (receptor MOR41-1): −4.785
- log EC50 (Table 4 value), MOR106-1 (receptor MOR106-1): −3.919
- log EC50 (Table 4 value), MOR129-1 (receptor MOR129-1): −4.04
- log EC50 (Table 4 value), MOR139-1 (receptor MOR139-1): −3.749
- log EC50 (Table 4 value), MOR161-1: −3.139
- log EC50 (Table 4 value), MOR162-1: −4.483
- log EC50 (Table 4 value), MOR170-1: −3.989
- log EC50 (Table 4 value), MOR185-1: −4.042
- log EC50 (Table 4 value), MOR189-1: −3.215
- log EC50 (Table 4 value), MOR207-1: −3.905
- log EC50 (Table 4 value), MOR250-1 (receptor MOR250-1): −3.855
- log EC50 (Table 4 value), MOR258-1 (receptor MOR258-1): −4.296
- log EC50 (Table 4 value), MOR259-1 (receptor MOR259-1): −3.834

Structure (SMILES): C=C(C)[C@@H]1CC[C@@H](C)C(=O)C1 [(+)-Dihydrocarvone]
- log EC50, MOR41-1 [1]: −4.301
- log EC50, MOR138-1 (0 = no response): −3.498
- log EC50, MOR139-1 [2]: −3.637
- log EC50, MOR182-1 (receptor MOR182-1, 0 = no response): −3.406
- log EC50, MOR184-1 (0 = no response): −3.55
- log EC50, MOR189-1 (0 = no response): −3.976
- log EC50, MOR203-1 (0 = no response): −4.241
- log EC50, MOR271-1 [3]: −3.987
- log EC50, MOR272-1 [5]: −4.273

Structure (SMILES): CC(=O)c1ccccc1 [Acetophenone]
- log EC50 (Table 4 value), MOR41-1 (receptor MOR41-1): −5.039
- log EC50 (Table 4 value), MOR105-1 (receptor MOR105-1): −3.429
- log EC50 (Table 4 value), MOR106-1 (receptor MOR106-1): −3.854
- log EC50 (Table 4 value), MOR129-1 (receptor MOR129-1): −5.484
- log EC50 (Table 4 value), MOR139-1 (receptor MOR139-1): −3.935
- log EC50 (Table 4 value), MOR161-1: −3.825
- log EC50 (Table 4 value), MOR162-1: −4.778
- log EC50 (Table 4 value), MOR170-1: −3.9
- log EC50 (Table 4 value), MOR185-1: −4.016
- log EC50 (Table 4 value), MOR189-1: −3.372
- log EC50 (Table 4 value), MOR207-1: −3.608
- log EC50 (Table 4 value), MOR250-1 (receptor MOR250-1): −3.975
- log EC50 (Table 4 value), MOR258-1 (receptor MOR258-1): −3.358
- log EC50 (Table 4 value), MOR271-1 (receptor MOR271-1): −4.05
- log EC50 (Table 4 value), MOR272-1 (receptor MOR272-1): −3.922

Structure (SMILES): C=CCOC(=O)Cc1ccccc1 [Allyl phenylacetate]
- log EC50 (Table 4 value), MOR1-1 (receptor MOR1-1): −3.581
- log EC50 (Table 4 value), MOR2-1 (receptor MOR2-1): −3.253
- log EC50 (Table 4 value), MOR139-1 (receptor MOR139-1): −3.625
- log EC50 (Table 4 value), MOR203-1: −3.401
- log EC50 (Table 4 value), MOR222-1: −3.369
- log EC50 (Table 4 value), MOR223-1 (receptor MOR223-1): −4.178
- log EC50 (Table 4 value), MOR236-1 (receptor MOR236-1): −4.052
- log EC50 (Table 4 value), MOR258-17 (receptor MOR258-17): −3.842
- log EC50 (Table 4 value), MOR261-1 (receptor MOR261-1): −3.425
- log EC50 (Table 4 value), MOR268-1 (receptor MOR268-1): −3.434
- log EC50 (Table 4 value), MOR271-1 (receptor MOR271-1): −4.23
- log EC50 (Table 4 value), MOR272-1 (receptor MOR272-1): −4.824

Structure (SMILES): C=C(C)[C@H]1CC=C(C)C(=O)C1 [(+)-Carvone]
- log EC50, MOR41-1 [1]: −4.644
- log EC50, MOR129-1 (receptor MOR129-1, 0 = no response): −4.145
- log EC50, MOR139-1 [2]: −4.032
- log EC50, MOR184-1 (0 = no response): −3.812
- log EC50, MOR189-1 (0 = no response): −4.302
- log EC50, MOR203-1 (0 = no response): −3.814
- log EC50, MOR250-1 (receptor MOR250-1, 0 = no response): −3.938
- log EC50, MOR271-1 [3]: −4.098
- log EC50, MOR272-1 [5]: −4.564

Structure (SMILES): CC(C)=CCCC(C)CCO (single isomer, unassigned; (-)) [(−)-b-C ? inedol]
- log EC50, MOR138-1 (0 = no response): −3.347
- log EC50, MOR203-1 (0 = no response): −3.147
